In the supplement of paper PMC10307832:

Experiments:
Assay in all cases: relative viability (nuclei count vs DMSO), 5 days (fraction); higher = more cells survive
A-427 = system: A-427
Procedure, shortened: (§1)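 Lung cancer cell lines in 1536-well plates got either a single drug or a fixed anchor-drug dose together with five library-drug doses (not always all listed) in √10 steps, by pin tool, on the day after seeding. Nuclei were counted after 5 days, and relative viability is the treated-to-vehicle ratio of nuclei counts. Values are medians of duplicate plates.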

CAL-12T = system: CAL-12T
Procedure, shortened: as §1

COR-L 105 = system: COR-L 105
Procedure, shortened: as §1

EMC-BAC-2 = system: EMC-BAC-2
Procedure, shortened: as §1

HARA = system: HARA
Procedure, shortened: as §1

HCC-366 = system: HCC-366
Procedure, shortened: as §1

HCC-827 = system: HCC-827
Procedure, shortened: as §1

HOP-62 = system: HOP-62
Procedure, shortened: as §1

LCLC-103H = system: LCLC-103H
Procedure, shortened: as §1

NCI-H1395 = system: NCI-H1395
Procedure, shortened: as §1

NCI-H1437 = system: NCI-H1437
Procedure, shortened: as §1

NCI-H1755 = system: NCI-H1755
Procedure, shortened: as §1

NCI-H1792 = system: NCI-H1792
Procedure, shortened: as §1

NCI-H1915 = system: NCI-H1915
Procedure, shortened: as §1

NCI-H2009 = system: NCI-H2009
Procedure, shortened: as §1

NCI-H2228 = system: NCI-H2228
Procedure, shortened: as §1

NCI-H23 = system: NCI-H23
Procedure, shortened: as §1

NCI-H460 = system: NCI-H460
Procedure, shortened: as §1

NCI-H522 = system: NCI-H522
Procedure, shortened: as §1

SK-LU-1 = system: SK-LU-1
Procedure, shortened: as §1

SW 1573 = system: SW 1573
Procedure, shortened: as §1

O=c1cc(N2CCOCC2)oc2c(-c3cccc4c3sc3ccccc34)cccc12 + Nc1nc2[nH]cc(CCc3ccc(C(=O)N[C@@H](CCC(=O)O)C(=O)O)cc3)c2c(=O)[nH]1 [Pemetrexed] (partner 0.2 µM)
relative viability (A-427; first compound 0.01 µM): 0.944
relative viability (A-427; first compound 0.03162 µM): 1.01
relative viability (A-427; first compound 0.1 µM): 0.954
relative viability (A-427; first compound 0.3162 µM): 0.993
relative viability (A-427; first compound 1 µM): 0.945
relative viability (CAL-12T; first compound 0.01 µM): 1.15
relative viability (CAL-12T; first compound 0.03162 µM): 1.16
relative viability (CAL-12T; first compound 0.1 µM): 1.29
relative viability (CAL-12T; first compound 0.3162 µM): 1.13
relative viability (CAL-12T; first compound 1 µM): 1.09
relative viability (COR-L 105; first compound 0.01 µM): 1.09
relative viability (COR-L 105; first compound 0.03162 µM): 0.949
relative viability (COR-L 105; first compound 0.1 µM): 1.1
relative viability (COR-L 105; first compound 0.3162 µM): 0.997
relative viability (COR-L 105; first compound 1 µM): 0.854
relative viability (EMC-BAC-2; first compound 0.01 µM): 0.459
relative viability (EMC-BAC-2; first compound 0.03162 µM): 0.43
relative viability (EMC-BAC-2; first compound 0.1 µM): 0.457
relative viability (EMC-BAC-2; first compound 0.3162 µM): 0.477
relative viability (EMC-BAC-2; first compound 1 µM): 0.456
relative viability (HARA; first compound 0.01 µM): 0.217
relative viability (HARA; first compound 0.03162 µM): 0.271
relative viability (HARA; first compound 0.1 µM): 0.225
relative viability (HARA; first compound 0.3162 µM): 0.238
relative viability (HARA; first compound 1 µM): 0.262
relative viability (HCC-366; first compound 0.01 µM): 0.159
relative viability (HCC-366; first compound 0.03162 µM): 0.181
relative viability (HCC-366; first compound 0.1 µM): 0.149
relative viability (HCC-366; first compound 0.3162 µM): 0.144
relative viability (HCC-366; first compound 1 µM): 0.186
relative viability (HCC-827; first compound 0.01 µM): 0.264
relative viability (HCC-827; first compound 0.03162 µM): 0.254
relative viability (HCC-827; first compound 0.1 µM): 0.295
relative viability (HCC-827; first compound 0.3162 µM): 0.271
relative viability (HCC-827; first compound 1 µM): 0.3
relative viability (HOP-62; first compound 0.01 µM): 0.303
relative viability (HOP-62; first compound 0.03162 µM): 0.344
relative viability (HOP-62; first compound 0.1 µM): 0.276
relative viability (HOP-62; first compound 0.3162 µM): 0.39
relative viability (HOP-62; first compound 1 µM): 0.384
relative viability (LCLC-103H; first compound 0.01 µM): 0.44
relative viability (LCLC-103H; first compound 0.03162 µM): 0.503
relative viability (LCLC-103H; first compound 0.1 µM): 0.485
relative viability (LCLC-103H; first compound 0.3162 µM): 0.465
relative viability (LCLC-103H; first compound 1 µM): 0.457
relative viability (NCI-H1395; first compound 0.03162 µM): 0.908
relative viability (NCI-H1395; first compound 0.1 µM): 0.909
relative viability (NCI-H1395; first compound 0.3162 µM): 1.01
relative viability (NCI-H1395; first compound 1 µM): 0.855
relative viability (NCI-H1437; first compound 0.01 µM): 0.327
relative viability (NCI-H1437; first compound 0.03162 µM): 0.292
relative viability (NCI-H1437; first compound 0.1 µM): 0.313
relative viability (NCI-H1437; first compound 0.3162 µM): 0.314
relative viability (NCI-H1437; first compound 1 µM): 0.314
relative viability (NCI-H1755; first compound 0.01 µM): 0.476
relative viability (NCI-H1755; first compound 0.03162 µM): 0.441
relative viability (NCI-H1755; first compound 0.1 µM): 0.425
relative viability (NCI-H1755; first compound 0.3162 µM): 0.414
relative viability (NCI-H1755; first compound 1 µM): 0.445
relative viability (NCI-H1792; first compound 0.01 µM): 0.835
relative viability (NCI-H1792; first compound 0.03162 µM): 0.901
relative viability (NCI-H1792; first compound 0.3162 µM): 0.836
relative viability (NCI-H1792; first compound 1 µM): 0.759
relative viability (NCI-H1915; first compound 0.01 µM): 0.495
relative viability (NCI-H1915; first compound 0.03162 µM): 0.534
relative viability (NCI-H1915; first compound 0.1 µM): 0.486
relative viability (NCI-H1915; first compound 0.3162 µM): 0.441
relative viability (NCI-H1915; first compound 1 µM): 0.486
relative viability (NCI-H2009; first compound 0.01 µM): 0.929
relative viability (NCI-H2009; first compound 0.03162 µM): 1.04
relative viability (NCI-H2009; first compound 0.1 µM): 1.01
relative viability (NCI-H2009; first compound 0.3162 µM): 1.01
relative viability (NCI-H2009; first compound 1 µM): 0.998
relative viability (NCI-H2228; first compound 0.01 µM): 0.342
relative viability (NCI-H2228; first compound 0.03162 µM): 0.356
relative viability (NCI-H2228; first compound 0.1 µM): 0.396
relative viability (NCI-H2228; first compound 0.3162 µM): 0.356
relative viability (NCI-H2228; first compound 1 µM): 0.355
relative viability (NCI-H23; first compound 0.01 µM): 0.732
relative viability (NCI-H23; first compound 0.03162 µM): 0.761
relative viability (NCI-H23; first compound 0.3162 µM): 0.659
relative viability (NCI-H23; first compound 1 µM): 0.609
relative viability (NCI-H460; first compound 0.01 µM): 0.0597
relative viability (NCI-H460; first compound 0.03162 µM): 0.0598
relative viability (NCI-H460; first compound 0.1 µM): 0.0653
relative viability (NCI-H460; first compound 0.3162 µM): 0.0653
relative viability (NCI-H460; first compound 1 µM): 0.0594
relative viability (NCI-H522; first compound 0.01 µM): 1.11
relative viability (NCI-H522; first compound 0.03162 µM): 1.02
relative viability (NCI-H522; first compound 0.1 µM): 1.08
relative viability (NCI-H522; first compound 0.3162 µM): 1.13
relative viability (NCI-H522; first compound 1 µM): 0.831
relative viability (SK-LU-1; first compound 0.01 µM): 0.963
relative viability (SK-LU-1; first compound 0.03162 µM): 0.975
relative viability (SK-LU-1; first compound 0.1 µM): 1.02
relative viability (SK-LU-1; first compound 0.3162 µM): 1
relative viability (SK-LU-1; first compound 1 µM): 0.953
relative viability (SW 1573; first compound 0.01 µM): 0.847
relative viability (SW 1573; first compound 0.03162 µM): 0.937
relative viability (SW 1573; first compound 0.1 µM): 0.824
relative viability (SW 1573; first compound 0.3162 µM): 0.857
relative viability (SW 1573; first compound 1 µM): 0.778
